Data: ChEMBL document CHEMBL1201862, “PubChem BioAssay data set” (2004)
Blank lines part the entries; values can stand above or below the molecule they belong to. Active and inactive are the calls of the source.

Tests used:
[1] = ARNT/TACC3 interaction disruptors, potency, confirmation, biochemical, AlphaScreen, cherry-picked samples (AID 651703); format: functional, Homo sapiens;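 note: His-tagged ARNT PAS-B domain paired with GST-TACC3 E629A dimer coactivator fragment; potency of inhibitors that break up the complex and lower AlphaScreen signal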
[2] = target: T1, Sentrin-specific protease 1 (Homo sapiens, UniProt Q9P0U3); assay: potency of human SENP1 inhibitors, dose response, biochemical, kinetic FRET (AID 651697); format: functional; settings: read-out: IC50_Mean
T1 sequence (Q9P0U3 whole entry, the tested form may be a part): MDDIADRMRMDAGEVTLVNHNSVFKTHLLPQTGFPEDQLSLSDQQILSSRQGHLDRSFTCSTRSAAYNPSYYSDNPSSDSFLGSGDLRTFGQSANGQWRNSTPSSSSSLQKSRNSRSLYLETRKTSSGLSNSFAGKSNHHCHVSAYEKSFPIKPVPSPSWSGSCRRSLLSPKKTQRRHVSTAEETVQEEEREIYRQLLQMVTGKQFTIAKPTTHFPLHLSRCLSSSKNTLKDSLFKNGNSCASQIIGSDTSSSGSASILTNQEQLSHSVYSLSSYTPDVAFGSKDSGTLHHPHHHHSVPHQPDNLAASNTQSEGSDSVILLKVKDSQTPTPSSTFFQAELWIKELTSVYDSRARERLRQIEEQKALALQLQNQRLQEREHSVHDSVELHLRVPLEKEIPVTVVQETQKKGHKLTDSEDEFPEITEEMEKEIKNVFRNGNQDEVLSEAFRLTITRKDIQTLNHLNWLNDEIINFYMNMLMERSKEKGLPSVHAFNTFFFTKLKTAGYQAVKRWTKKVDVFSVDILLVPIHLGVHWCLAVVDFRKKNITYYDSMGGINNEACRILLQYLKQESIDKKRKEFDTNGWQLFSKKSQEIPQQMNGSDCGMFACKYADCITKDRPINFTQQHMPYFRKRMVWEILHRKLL

[3] = target: T1, Sentrin-specific protease 1; assay: Dose response confirmation of small molecule inhibitors of the catalytic domain of the SUMO protease, SENP1 in a FRET assay.; format: functional; settings: read-out: IC50_Mean
[4] = target: Nuclear receptor subfamily 5 group A member 2 (Homo sapiens, UniProt O00482); format: functional, cell-based;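 note: HEK293T cells transfected with LRH-1 and a StAR promoter luciferase reporter; potency for inhibitors that lower LRH-1 driven reporter light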
Sequence of Nuclear receptor subfamily 5 group A member 2 (O00482 whole entry): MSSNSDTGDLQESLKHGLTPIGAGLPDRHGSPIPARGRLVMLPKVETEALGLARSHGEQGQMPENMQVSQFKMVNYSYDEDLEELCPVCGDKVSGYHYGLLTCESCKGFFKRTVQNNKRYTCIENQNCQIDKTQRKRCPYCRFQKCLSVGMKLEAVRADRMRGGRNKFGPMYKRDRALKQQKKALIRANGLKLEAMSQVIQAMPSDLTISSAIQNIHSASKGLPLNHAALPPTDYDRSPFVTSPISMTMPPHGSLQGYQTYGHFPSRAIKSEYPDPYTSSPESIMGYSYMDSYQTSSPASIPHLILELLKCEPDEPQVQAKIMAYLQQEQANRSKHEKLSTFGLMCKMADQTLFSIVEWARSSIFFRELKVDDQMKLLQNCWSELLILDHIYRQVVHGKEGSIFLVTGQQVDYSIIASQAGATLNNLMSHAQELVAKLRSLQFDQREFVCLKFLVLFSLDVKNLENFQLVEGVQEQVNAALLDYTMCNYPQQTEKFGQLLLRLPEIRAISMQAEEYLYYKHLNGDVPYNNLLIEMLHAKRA

Steroidogenic factor 1 = Steroidogenic factor 1 (Homo sapiens, UniProt Q13285); assay: Counterscreen for inverse agonists of the liver receptor homolog-1 (LRH-1; NR5A2): Luminescence-based cell-based high throughput dose response assay to identify inverse agonists of the Steroidogenic Factor 1 Nuclear Receptor (SF1; NR5A1).; format: functional
Sequence of Steroidogenic factor 1 (Q13285 whole entry): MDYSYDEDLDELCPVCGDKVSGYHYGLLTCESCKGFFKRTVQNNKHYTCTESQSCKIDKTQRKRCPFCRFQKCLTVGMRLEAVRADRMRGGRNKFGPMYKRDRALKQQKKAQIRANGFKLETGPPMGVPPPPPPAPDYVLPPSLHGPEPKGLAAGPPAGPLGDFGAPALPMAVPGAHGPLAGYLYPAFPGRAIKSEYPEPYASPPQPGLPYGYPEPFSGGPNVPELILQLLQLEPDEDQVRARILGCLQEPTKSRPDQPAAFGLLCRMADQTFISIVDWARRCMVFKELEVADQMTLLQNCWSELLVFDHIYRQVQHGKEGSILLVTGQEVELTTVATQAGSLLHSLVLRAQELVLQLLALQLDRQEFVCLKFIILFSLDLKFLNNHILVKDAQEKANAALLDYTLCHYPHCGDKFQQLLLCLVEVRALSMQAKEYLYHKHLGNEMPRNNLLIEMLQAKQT

[5] = StAR promoter reporter inhibition counter-screen, dose response, counter-screen for LRH-1 inverse agonist project, cell-based, luminescence, luciferase reporter (AID 651969); format: functional
INS1 = assay: beta cell apoptosis inhibitors, cytokine rescue, dose response, luminescence, retest (AID 449756); format: functional, cell-based; settings: Rattus norvegicus;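 note: cell death triggered by IL-1 beta plus TNF-alpha plus IFN-gamma mixture; protective hits raise ATP signal compared with cytokine alone wells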
[6] = target: T2, Corticotropin-releasing factor receptor 2/Corticotropin-releasing factor-binding protein (Homo sapiens, UniProt P24387+Q13324); assay: Dose Response confirmation of uHTS hits for small molecule antagonists of the CRF-binding protein and CRF-R2 receptor complex.; format: functional; settings: read-out: IC50_Mean
T2 sequence (Q13324 whole entry): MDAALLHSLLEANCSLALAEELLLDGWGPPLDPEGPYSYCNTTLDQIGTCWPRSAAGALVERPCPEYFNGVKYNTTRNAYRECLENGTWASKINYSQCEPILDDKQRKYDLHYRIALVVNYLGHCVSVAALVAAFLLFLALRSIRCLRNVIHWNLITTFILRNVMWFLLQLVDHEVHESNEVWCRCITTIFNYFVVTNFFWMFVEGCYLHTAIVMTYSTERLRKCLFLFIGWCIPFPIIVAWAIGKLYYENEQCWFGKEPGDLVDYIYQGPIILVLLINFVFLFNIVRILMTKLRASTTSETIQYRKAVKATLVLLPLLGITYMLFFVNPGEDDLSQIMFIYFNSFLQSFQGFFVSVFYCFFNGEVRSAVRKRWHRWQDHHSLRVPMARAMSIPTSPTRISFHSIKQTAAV
T2 sequence (P24387 whole entry): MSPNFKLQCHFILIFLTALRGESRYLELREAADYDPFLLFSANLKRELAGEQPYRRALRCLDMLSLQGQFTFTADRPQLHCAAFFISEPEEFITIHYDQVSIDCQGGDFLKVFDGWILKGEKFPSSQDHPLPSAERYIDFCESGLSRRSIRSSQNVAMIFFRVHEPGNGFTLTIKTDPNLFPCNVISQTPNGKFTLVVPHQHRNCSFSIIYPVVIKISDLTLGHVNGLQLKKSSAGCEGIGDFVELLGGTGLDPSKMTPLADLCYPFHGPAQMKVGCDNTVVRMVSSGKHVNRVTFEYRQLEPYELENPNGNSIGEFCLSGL

[7] = target: T2, Corticotropin-releasing factor receptor 2/Corticotropin-releasing factor-binding protein; assay: activators of CRF receptor 2 with binding protein – uHTS hits, confirmation (AID 602473); format: functional; settings: read-out: EC50_Mean
[8] = CRF-BP/CRF-R2 complex antagonists, dose response, cell-based, uHTS hits, 384-well (AID 651639); format: functional, Homo sapiens; settings: read-out: IC50_Mean
[9] = target: Photoreceptor-specific nuclear receptor (Homo sapiens, UniProt Q9Y5X4); format: functional, cell-based;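 note: CHO-S cells with Gal4-NCOR and VP16-NR2E3 two-hybrid luciferase reporter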
Sequence of Photoreceptor-specific nuclear receptor (Q9Y5X4 whole entry, the tested form may be a part): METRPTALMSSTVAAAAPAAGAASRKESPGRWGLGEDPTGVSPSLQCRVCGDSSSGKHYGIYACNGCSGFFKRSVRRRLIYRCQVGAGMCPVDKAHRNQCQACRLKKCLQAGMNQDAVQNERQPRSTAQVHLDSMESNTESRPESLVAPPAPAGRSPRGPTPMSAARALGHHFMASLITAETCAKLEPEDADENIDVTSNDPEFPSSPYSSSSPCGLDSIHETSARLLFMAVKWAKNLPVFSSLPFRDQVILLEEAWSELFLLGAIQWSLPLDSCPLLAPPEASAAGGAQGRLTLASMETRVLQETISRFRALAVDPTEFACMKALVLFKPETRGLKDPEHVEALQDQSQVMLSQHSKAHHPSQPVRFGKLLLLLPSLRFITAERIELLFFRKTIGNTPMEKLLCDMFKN

[10] = NIH-3T3 fibroblast cytotoxicity, dose response, cytotoxicity control for antifungal single agent project, cell-based, Alamar Blue, dry powder (AID 602188); format: functional

SMILES: C[C@@H]1CN([C@H](C)CO)C(=O)c2cc(N(C)C)ccc2O[C@@H](C)CCCCO[C@@H]1CN(C)Cc1ccc2c(c1)OCO2
AC50 [1]: 74.9 µM (active)

IC50 [2]: 68.8 µM (inactive)
IC50 [3]: 19.9 µM (active)
SMILES: COc1cc(NC2=Nc3cccc4cccc2c34)cc(OC)c1OC

SMILES: CC(=O)Nc1cc(-c2ccc(F)cc2)cn2c(-c3ccc(S(C)(=O)=O)cc3)cnc12
IC50 [4]: 8.66 µM (active)
IC50 (Steroidogenic factor 1): 3.15 µM (active)
IC50 [5]: 21.3 µM (inactive)

SMILES: O=S(=O)(Nc1nc2ccccc2s1)c1ccc(Cl)s1
AC50 (INS1): 31.8 µM (active)
IC50 [6]: 6.02 µM (active)
EC50 [7]: > 53 µM (inactive)
IC50 [8]: 8.22 µM (active)

IC50 [9]: 2.52 µM (active)
SMILES: FC(F)Sc1ccc(NC(=S)N2CCN(c3ccccn3)CC2)cc1

SMILES: Oc1c(C(c2ccccc2Cl)N2CCCCC2)ccc2cccnc12 (configuration not stated)
AC50 [10]: 5.69 µM (active)
